Source: patent publication US20160158317A1, “Antimicrobial Peptide Variants and Polynucleotides Encoding Same” (Adenium Biotech A/S, priority 2010, published 2016)
Where a SMILES comes first, the peptide text is derived from it. Bridges are numbered along the chain shown (N, C = ends).

Experiment: Determination of the protein binding (90% serum, 30 kDa filter, HPLC)
Format: in vitro ADME
Settings: serum
Experimental: Protein binding assays were performed as follows. The purified peptides were mixed with 90% serum and centrifuged through a 30 kDa filter. The ultra-filtrate and the non filtrated serum samples were quantified by HPLC measurements and the protein binding was subsequently calculated.

| Compound | fraction unbound |
| --- | --- |
| CC(C)[C@@H]1NC(=O)CNC(=O)[C@H](CC(N)=O)NC(=O)[C@H](CCCNC(=N)N)NC(=O)[C@H](Cc2ccc(O)cc2)NC(=O)[C@H](C(C)C)NC(=O)[C@@H]2CSSC[C@H](NC(=O)[C@H](C(C)C)NC(=O)[C@H](CCCNC(=N)N)NC1=O)C(=O)N[C@@H](CC(N)=O)C(=O)N[C@@H](CCCNC(=N)N)C(=O)N[C@@H](CCCNC(=N)N)C(=O)N[C@H](C(=O)N[C@@H](CC(N)=O)C(=O)O)CSSC[C@H](NC(=O)[C@H](Cc1ccccc1)NC(=O)CN)C(=O)N[C@@H](Cc1c[nH]c3ccccc13)C(=O)N[C@@H](Cc1ccc(O)cc1)C(=O)N[C@@H](C(C)C)C(=O)N2 [compound 48] (H-GFCWYVCVYRNGVRVCNRRCN-OH; disulfide 3-20, 7-16 (inferred); N-terminus and C-terminus assumed) | 0.32 |
| CC(C)[C@@H]1NC(=O)CNC(=O)[C@H](CC(N)=O)NC(=O)[C@H](CCCNC(=N)N)NC(=O)[C@H](Cc2ccc(O)cc2)NC(=O)[C@H](C(C)C)NC(=O)[C@@H]2CSSC[C@H](NC(=O)[C@H](C(C)C)NC(=O)[C@H](CCCNC(=N)N)NC1=O)C(=O)N[C@@H](Cc1c[nH]cn1)C(=O)N[C@@H](CCCNC(=N)N)C(=O)N[C@@H](CCCNC(=N)N)C(=O)N[C@H](C(=O)N[C@@H](CCCCN)C(=O)O)CSSC[C@H](NC(=O)[C@H](Cc1ccccc1)NC(=O)CN)C(=O)N[C@@H](Cc1c[nH]c3ccccc13)C(=O)N[C@@H](CC(N)=O)C(=O)N[C@@H](C(C)C)C(=O)N2 [compound 284] (H-GFCWNVCVYRNGVRVCHRRCK-OH; disulfide 3-20, 7-16 (inferred); N-terminus and C-terminus assumed) | 0.28 |
| CC(C)[C@@H]1NC(=O)CNC(=O)[C@H](CC(N)=O)NC(=O)[C@H](CCCNC(=N)N)NC(=O)[C@H](Cc2ccc(O)cc2)NC(=O)[C@H](C(C)C)NC(=O)[C@@H]2CSSC[C@H](NC(=O)[C@H](C(C)C)NC(=O)[C@H](CCCNC(=N)N)NC1=O)C(=O)N[C@@H](Cc1c[nH]cn1)C(=O)N[C@@H](CCCNC(=N)N)C(=O)N[C@@H](CCCNC(=N)N)C(=O)N[C@H](C(=O)N[C@@H](CC(N)=O)C(=O)O)CSSC[C@H](NC(=O)[C@H](Cc1ccccc1)NC(=O)CN)C(=O)N[C@@H](Cc1c[nH]c3ccccc13)C(=O)N[C@@H](CCCNC(=N)N)C(=O)N[C@@H](C(C)C)C(=O)N2 [compound 76] (H-GFCWRVCVYRNGVRVCHRRCN-OH; disulfide 3-20, 7-16 (inferred); N-terminus and C-terminus assumed) | 0.08 |
| CC(C)[C@@H]1NC(=O)CNC(=O)[C@H](CC(N)=O)NC(=O)[C@H](CCCNC(=N)N)NC(=O)[C@H](Cc2ccc(O)cc2)NC(=O)[C@H](C(C)C)NC(=O)[C@@H]2CSSC[C@H](NC(=O)[C@H](C(C)C)NC(=O)[C@H](CCCNC(=N)N)NC1=O)C(=O)N[C@@H](Cc1c[nH]cn1)C(=O)N[C@@H](CCCNC(=N)N)C(=O)N[C@@H](CCCNC(=N)N)C(=O)N[C@H](C(=O)N[C@@H](CC(N)=O)C(=O)O)CSSC[C@H](NC(=O)[C@H](Cc1ccccc1)NC(=O)CN)C(=O)N[C@@H](Cc1c[nH]c3ccccc13)C(=O)N[C@@H](Cc1ccc(O)cc1)C(=O)N[C@@H](C(C)C)C(=O)N2 [compound 46] (H-GFCWYVCVYRNGVRVCHRRCN-OH; disulfide 3-20, 7-16 (inferred); N-terminus and C-terminus assumed) | 0.12 |
| CC(C)[C@@H]1NC(=O)CNC(=O)[C@H](CC(N)=O)NC(=O)[C@H](CCCNC(=N)N)NC(=O)[C@H](Cc2ccc(O)cc2)NC(=O)[C@H](C(C)C)NC(=O)[C@@H]2CSSC[C@H](NC(=O)[C@H](C(C)C)NC(=O)[C@H](CCCNC(=N)N)NC1=O)C(=O)N[C@@H](Cc1ccc(O)cc1)C(=O)N[C@@H](CCCNC(=N)N)C(=O)N[C@@H](CCCNC(=N)N)C(=O)N[C@H](C(=O)N[C@@H](CC(N)=O)C(=O)O)CSSC[C@H](NC(=O)[C@H](Cc1ccccc1)NC(=O)CN)C(=O)N[C@@H](CO)C(=O)N[C@@H](Cc1ccc(O)cc1)C(=O)N[C@@H](C(C)C)C(=O)N2 [compound 7] (H-GFCSYVCVYRNGVRVCYRRCN-OH; disulfide 3-20, 7-16 (inferred); N-terminus and C-terminus assumed) | 0.32 |
| CC(C)[C@@H]1NC(=O)CNC(=O)[C@H](CC(N)=O)NC(=O)[C@H](CCCNC(=N)N)NC(=O)[C@H](Cc2ccc(O)cc2)NC(=O)[C@H](C)NC(=O)[C@@H]2CSSC[C@H](NC(=O)[C@H](C)NC(=O)[C@H](CCCNC(=N)N)NC1=O)C(=O)N[C@@H](Cc1ccc(O)cc1)C(=O)N[C@@H](CCCNC(=N)N)C(=O)N[C@@H](CCCNC(=N)N)C(=O)N[C@H](C(=O)N[C@@H](CC(N)=O)C(=O)O)CSSC[C@H](NC(=O)[C@H](Cc1ccccc1)NC(=O)CN)C(=O)N[C@@H](Cc1c[nH]c3ccccc13)C(=O)N[C@@H](Cc1ccc(O)cc1)C(=O)N[C@@H](C)C(=O)N2 [compound 343] (H-GFCWYACAYRNGVRACYRRCN-OH; disulfide 3-20, 7-16 (inferred); N-terminus and C-terminus assumed) | 0.26 |
| CC(C)[C@@H]1NC(=O)[C@H](CCCNC(=N)N)NC(=O)[C@H](CCCCN)NC(=O)CNC(=O)[C@H](CC(N)=O)NC(=O)[C@H](CO)NC(=O)[C@H](Cc2ccc(O)cc2)NC(=O)[C@H](Cc2c[nH]cn2)NC(=O)[C@@H]2CSSC[C@H](NC1=O)C(=O)N[C@@H](Cc1ccc(O)cc1)C(=O)N[C@@H](CCCNC(=N)N)C(=O)N[C@@H](CCCNC(=N)N)C(=O)N[C@H](C(=O)N[C@@H](CC(N)=O)C(=O)O)CSSC[C@H](NC(=O)[C@H](Cc1ccccc1)NC(=O)CN)C(=O)N[C@@H](Cc1c[nH]c3ccccc13)C(=O)N[C@@H](CCCNC(=N)N)C(=O)N[C@@H](C(C)C)C(=O)N2 [compound 439] (H-GFCWRVCHYSNGKRVCYRRCN-OH; disulfide 3-20, 7-16 (inferred); N-terminus and C-terminus assumed) | 0.08 |
| CC(C)[C@@H]1NC(=O)CNC(=O)[C@H](CC(N)=O)NC(=O)[C@H](CCCNC(=N)N)NC(=O)[C@H](Cc2ccc(O)cc2)NC(=O)[C@H](C(C)C)NC(=O)[C@@H]2CSSC[C@H](NC(=O)[C@H](C(C)C)NC(=O)[C@H](CCCNC(=N)N)NC1=O)C(=O)N[C@@H](Cc1ccc(O)cc1)C(=O)N[C@@H](CCCNC(=N)N)C(=O)N[C@@H](CCCNC(=N)N)C(=O)N[C@H](C(=O)N[C@@H](CO)C(=O)O)CSSC[C@H](NC(=O)[C@H](Cc1ccccc1)NC(=O)CN)C(=O)N[C@@H](Cc1c[nH]c3ccccc13)C(=O)N[C@@H](Cc1ccc(O)cc1)C(=O)N[C@@H](C(C)C)C(=O)N2 [compound 53] (H-GFCWYVCVYRNGVRVCYRRCS-OH; disulfide 3-20, 7-16 (inferred); N-terminus and C-terminus assumed) | 0.01 |
| CC(C)[C@@H]1NC(=O)CNC(=O)[C@H](CC(N)=O)NC(=O)[C@H](CCCNC(=N)N)NC(=O)[C@H](Cc2ccc(O)cc2)NC(=O)[C@H](C(C)C)NC(=O)[C@@H]2CSSC[C@H](NC(=O)[C@H](CCCNC(=N)N)NC(=O)[C@H](CCCNC(=N)N)NC1=O)C(=O)N[C@@H](Cc1c[nH]cn1)C(=O)N[C@@H](CCCNC(=N)N)C(=O)N[C@@H](CCCNC(=N)N)C(=O)N[C@H](C(=O)N[C@@H](CC(N)=O)C(=O)O)CSSC[C@H](NC(=O)[C@H](Cc1ccccc1)NC(=O)CN)C(=O)N[C@@H](Cc1c[nH]c3ccccc13)C(=O)N[C@@H](CC(N)=O)C(=O)N[C@@H](C(C)C)C(=O)N2 [compound 252] (H-GFCWNVCVYRNGVRRCHRRCN-OH; disulfide 3-20, 7-16 (inferred); N-terminus and C-terminus assumed) | 0.24 |
| CC(C)[C@@H]1NC(=O)[C@H](CCCNC(=N)N)NC(=O)CNC(=O)CNC(=O)[C@H](CC(N)=O)NC(=O)[C@H](CCCNC(=N)N)NC(=O)[C@H](Cc2ccc(O)cc2)NC(=O)[C@H](C(C)C)NC(=O)[C@@H]2CSSC[C@H](NC1=O)C(=O)N[C@@H](Cc1ccc(O)cc1)C(=O)N[C@@H](CCCNC(=N)N)C(=O)N[C@@H](CCCNC(=N)N)C(=O)N[C@H](C(=O)N[C@@H](CC(N)=O)C(=O)O)CSSC[C@H](NC(=O)[C@H](Cc1ccccc1)NC(=O)CN)C(=O)N[C@@H](Cc1c[nH]c3ccccc13)C(=O)N[C@@H](Cc1ccc(O)cc1)C(=O)N[C@@H](C(C)C)C(=O)N2 [compound 30] (H-GFCWYVCVYRNGGRVCYRRCN-OH; disulfide 3-20, 7-16 (inferred); N-terminus and C-terminus assumed) | 0.01 |
| CC(C)[C@@H]1NC(=O)CNC(=O)[C@H](CC(N)=O)NC(=O)[C@H](CCCNC(=N)N)NC(=O)[C@H](CCCCN)NC(=O)[C@H](C(C)C)NC(=O)[C@@H]2CSSC[C@H](NC(=O)[C@H](CCCCN)NC(=O)[C@H](CCCNC(=N)N)NC1=O)C(=O)N[C@@H](Cc1ccc(O)cc1)C(=O)N[C@@H](CCCNC(=N)N)C(=O)N[C@@H](CCCNC(=N)N)C(=O)N[C@H](C(=O)N[C@@H](CC(N)=O)C(=O)O)CSSC[C@H](NC(=O)[C@H](Cc1ccccc1)NC(=O)CN)C(=O)N[C@@H](Cc1ccccc1)C(=O)N[C@@H](CCCNC(=N)N)C(=O)N[C@@H](C(C)C)C(=O)N2 [compound 381] (H-GFCFRVCVKRNGVRKCYRRCN-OH; disulfide 3-20, 7-16 (inferred); N-terminus and C-terminus assumed) | 0.02 |
| CSCC[C@H](N)C(=O)N[C@@H](Cc1ccccc1)C(=O)N[C@H]1CSSC[C@@H](C(=O)N[C@@H](CC(N)=O)C(=O)O)NC(=O)[C@H](CCCNC(=N)N)NC(=O)[C@H](CCCNC(=N)N)NC(=O)[C@H](Cc2c[nH]cn2)NC(=O)[C@@H]2CSSC[C@H](NC(=O)[C@H](C(C)C)NC(=O)[C@H](CC(N)=O)NC(=O)[C@H](Cc3c[nH]c4ccccc34)NC1=O)C(=O)N[C@@H](C(C)C)C(=O)N[C@@H](Cc1ccc(O)cc1)C(=O)N[C@@H](CCCNC(=N)N)C(=O)N[C@@H](CC(N)=O)C(=O)NCC(=O)N[C@@H](C(C)C)C(=O)N[C@@H](CCCNC(=N)N)C(=O)N[C@@H](C(C)C)C(=O)N2 [compound 101] (H-MFCWNVCVYRNGVRVCHRRCN-OH; disulfide 3-20, 7-16 (inferred); N-terminus and C-terminus assumed) | 0.19 |
